Data as given in patent publication US10858360B2, “Tricyclic gyrase inhibitors” (priority 2011, dated 2020).
≈ marks a conversion by molar mass, not a printed value.

Key:
S. aureus ATCC 13709 = experiment: MIC, S. aureus ATCC 13709 (Alamar Blue broth microdilution); type: cell-based; details: Alamar Blue read after overnight incubation at 35° C.; for MIC Sa: S. aureus; for MIC: Staphylococcus aureus, ATCC13709, S. aureus
E. coli ATCC 25922 = experiment: MIC, E. coli ATCC 25922; type: cell-based; details: Alamar Blue read after overnight incubation at 35° C.; for MIC Ec: E. coli; for MIC: Escherichia coli, ATCC25922, E. coli

Compound | MIC Sa (S. aureus ATCC 13709) [µg/mL] | MIC Ec (E. coli ATCC 25922) [µg/mL] | MIC (S. aureus ATCC 13709) [µg/mL] | MIC (E. coli ATCC 25922) [µg/mL]
CCOC1CN(c2nc(Oc3cnc(C)nc3)nc3[nH]c4c(NC)cc(F)cc4c23)CC1N (mixture of isomers) [4.147] | ≤0.5 | 1 | – | –
CNc1cc(F)cc2c1[nH]c1nc(Oc3cncc(-c4nnnn4C)c3)nc(N3CC4CC(N)C4C3)c12 (mixture of isomers) [4.171] | ≤0.5 | 4 | – | –
CNc1cc(F)cc2c1[nH]c1nc(Oc3cnc(N)nc3)nc(N3CCC4(CC4N)C3)c12 (mixture of isomers) [4.174] | ≤0.5 | ≤0.5 | – | –
CNc1cc(F)cc2c1[nH]c1nc(Oc3cnc(N)nc3)nc(N3CC4C(N)CC4(C)C3)c12 (mixture of isomers) [4.192] | ≤0.5 | 4 | – | –
NC1C2CN(c3nc(Sc4cnc5cccnc5c4)nc4[nH]c5c(NC6CC6)cc(F)cc5c34)CC12 (centres unmarked) [1.1] | – | – | 4 (≈ 8.02 µM) | 64 (≈ 128 µM)
NC1CN(c2nc(Sc3cnc4ccc[n+]([O-])c4c3)nc3[nH]c4c(NC5CC5)cc(F)cc4c23)CC12CC2 (centres unmarked) [1.2] | – | – | 32 (≈ 60.5 µM) | > 64
NC1C2CN(c3nc(Sc4cnc5ccc[n+]([O-])c5c4)nc4[nH]c5c(Cl)cccc5c34)CC12 (centres unmarked) [1.3] | – | – | 32 (≈ 67.2 µM) | > 64
N[C@@H]1CCN(c2nc(Sc3cnc4ccc[n+]([O-])c4c3)nc3[nH]c4c(Cl)cccc4c23)C1 [1.4] | – | – | 32 (≈ 69 µM) | 64 (≈ 138 µM)
NC1CN(c2nc(Sc3cnc4nccnc4c3)nc3[nH]c4ccccc4c23)C1 [1.5] | – | – | > 64 | > 64
NC1CCN(c2nc(Sc3cnc4nccnc4c3)nc3[nH]c4ccccc4c23)C1 (centres unmarked) [1.6] | – | – | 32 (≈ 77.2 µM) | > 64
Cc1cccc2c1[nH]c1nc(Sc3cnc4nccnc4c3)nc(N3CC4C(N)C4C3)c12 (centres unmarked) [1.7] | – | – | 4 (≈ 9.08 µM) | > 32
Nc1cccc2c1[nH]c1nc(Sc3cnc4ccc[n+]([O-])c4c3)nc(N3CC4C(N)C4C3)c12 (centres unmarked) [1.8] | – | – | 64 (≈ 140 µM) | > 64
Nc1cccc2c1[nH]c1nc(Sc3cnc4cccnc4c3)nc(N3CC4C(N)C4C3)c12 (centres unmarked) [1.9] | – | – | 64 (≈ 145 µM) | > 64
CCNc1cccc2c1[nH]c1nc(Sc3cnc4ccc[n+]([O-])c4c3)nc(N3CC4C(N)C4C3)c12 (centres unmarked) [1.10] | – | – | ≤ 0.5 | 4 (≈ 8.25 µM)
CCNc1cccc2c1[nH]c1nc(Sc3cnc4cccnc4c3)nc(N3CC4C(N)C4C3)c12 (centres unmarked) [1.11] | – | – | ≤ 0.5 | 8 (≈ 17.1 µM)
CNc1cccc2c1[nH]c1nc(Sc3cnc4cccnc4c3)nc(N3CC4C(N)C4C3)c12 (centres unmarked) [1.12] | – | – | ≤ 0.5 | 1 (≈ 2.2 µM)
CNc1cccc2c1[nH]c1nc(Sc3cnc4ccc[n+]([O-])c4c3)nc(N3CC4C(N)C4C3)c12 (centres unmarked) [1.13] | ≤0.5 | – | – | ≤ 0.5
CNc1cccc2c1[nH]c1nc(Sc3cnc4ccc[n+]([O-])c4c3)nc(N3CC[C@H](N)C3)c12 [1.14] | – | – | ≤ 0.5 | 1 (≈ 2.18 µM)
CNc1cccc2c1[nH]c1nc(Sc3cnc4nccnc4c3)nc(N3CC[C@H](N)C3)c12 [1.15] | – | – | 1 (≈ 2.25 µM) | 2 (≈ 4.51 µM)
CNc1cccc2c1[nH]c1nc(Sc3cnc4nccnc4c3)nc(N3CC4C(N)C4C3)c12 (centres unmarked) [1.16] | – | – | ≤ 0.5 | 1 (≈ 2.2 µM)
CNc1cccc2c1[nH]c1nc(Sc3cnc4ccc[n+]([O-])c4c3)nc(N3CC(O)C3)c12 [1.17] | – | – | ≤ 0.5 | > 64
CNc1cccc2c1[nH]c1nc(Sc3cnc4ccc[n+]([O-])c4c3)nc(N3C[C@@H]4[C@@H](CN)[C@@H]4C3)c12 [1.18] | – | – | ≤ 0.5 | 2 (≈ 4.13 µM)

Compound | MIC Sa (S. aureus ATCC 13709) [µg/mL] | MIC Ec (E. coli ATCC 25922) [µg/mL] | MIC (S. aureus ATCC 13709) [µg/mL] | MIC (E. coli ATCC 25922) [µg/mL]
CNc1cccc2c1[nH]c1nc(Sc3cnc4ccc[n+]([O-])c4c3)nc(N3C[C@@H]4[C@H](C3)[C@@]4(N)C(N)=O)c12 [1.19] | – | – | > 64 | > 64
CNc1cccc2c1[nH]c1nc(Sc3cnc4ccc[n+]([O-])c4c3)nc(N3CC(CN)C3)c12 [1.20] | – | – | 4 (≈ 8.72 µM) | 16 (≈ 34.9 µM)
CNc1cccc2c1[nH]c1nc(Sc3cnc4ccc[n+]([O-])c4c3)nc(N3CC(CNC(=O)c4cn(C)nc4C(F)(F)F)C3)c12 [1.21] | – | – | ≤ 0.5 | > 64
CNc1cccc2c1[nH]c1nc(Sc3cncc(S(=O)(=O)N(C)C)c3)nc(N3CC4C(N)C4C3)c12 (centres unmarked) [1.22] | – | – | 1 (≈ 1.96 µM) | 8 (≈ 15.7 µM)
CNc1cccc2c1[nH]c1nc(Sc3cnc4ccc[n+]([O-])c4c3)nc(N3CC4C(N)C4C3)c12 (centres unmarked) [1.23] | ≤0.5 | – | – | –
CNc1cccc2c1[nH]c1nc(Sc3cnc4cccnc4c3)nc(N3CC4C(N)C4C3)c12 (centres unmarked) [1.24] | ≤0.5 | 1 (≈ 2.2 µM) | – | –
CNc1cccc2c1[nH]c1nc(Sc3cnc4cccnc4c3)nc(N3CCC4(CC4N)C3)c12 (centres unmarked) [1.25] | – | 4 (≈ 8.54 µM) | ≤ 0.5 | –
CNc1cccc2c1[nH]c1nc(Sc3cnc4cccnc4c3)nc(N3CCC4(CC4N)C3)c12 (centres unmarked) [1.26] | ≤0.5 | 1 (≈ 2.13 µM) | – | –
CNc1cccc2c1[nH]c1nc(Sc3cnc4cccnc4c3)nc(N3CC(N)C4(CC4)C3)c12 (centres unmarked) [1.27] | – | – | ≤ 0.5 | 1 (≈ 2.13 µM)
CNc1cccc2c1[nH]c1nc(Sc3cnc4cccnc4c3)nc(N3CC4CCCNC4C3)c12 (centres unmarked) [1.28] | – | – | 4 (≈ 8.29 µM) | 16 (≈ 33.2 µM)
CNc1cccc2c1[nH]c1nc(Sc3cnc4cccnc4c3)nc(N3CC(N)C3)c12 [1.29] | – | – | 1 (≈ 2.33 µM) | > 64
CNc1cccc2c1[nH]c1nc(Sc3cnc4cccnc4c3)nc(N3CC4C(C3)C4(N)CO)c12 (centres unmarked) [1.30] | – | – | 16 (≈ 33 µM) | > 64
CNc1cccc2c1[nH]c1nc(Sc3cc4ncccc4[n+]([O-])c3)nc(N3C[C@@H]4[C@@H](N)[C@@H]4C3)c12 [1.31] | – | – | ≤ 0.5 | ≤ 0.5
CNc1cccc2c1[nH]c1nc(Sc3cnc4ccc[n+]([O-])c4c3)nc(N3CC4CNC4C3)c12 (centres unmarked) [1.32] | – | – | ≤ 0.5 | 4 (≈ 8.5 µM)
CNc1cccc2c1[nH]c1nc(Sc3cnc4ccc[n+]([O-])c4c3)nc(N3CC(C4(N)CC4)C3)c12 [1.33] | – | – | ≤ 0.5 | 4 (≈ 8.25 µM)
CNc1cccc2c1[nH]c1nc(Sc3cnc4ccc[n+]([O-])c4c3)nc(N3CCC[C@@H](N)C3)c12 [1.34] | – | – | 1 (≈ 2.12 µM) | 4 (≈ 8.46 µM)
CNc1cccc2c1[nH]c1nc(Sc3cnc4ccc[n+]([O-])c4c3)nc(N3CC[C@@H](C)[C@@H](N)C3)c12 [1.35] | – | – | ≤ 0.5 | 2 (≈ 4.11 µM)
CNc1cccc2c1[nH]c1nc(Sc3cncc(S(=O)(=O)NC)c3)nc(N3CC4C(N)C4C3)c12 (centres unmarked) [1.36] | – | – | 2 (≈ 4.03 µM) | 4 (≈ 8.05 µM)
CNc1cccc2c1[nH]c1nc(Sc3cnc4cccnc4c3)nc(N3CCC[C@@H](N)C3)c12 [1.37] | – | – | 1 (≈ 2.19 µM) | 4 (≈ 8.76 µM)
CNc1cccc2c1[nH]c1nc(Sc3cnc4ccc[n+]([O-])c4c3)nc(N3CCC4(CC4N)C3)c12 (centres unmarked) [1.38] | – | – | ≤ 0.5 | 2 (≈ 4.13 µM)
CNc1cccc2c1[nH]c1nc(Sc3cnc4ccc[n+]([O-])c4c3)nc(N3CCC4(CC4N)C3)c12 (centres unmarked) [1.39] | ≤0.5 | 1 (≈ 2.06 µM) | – | –
CNc1cccc2c1[nH]c1nc(Sc3cnc4ccc[n+]([O-])c4c3)nc(N3CC(N)C4(CC4)C3)c12 (centres unmarked) [1.40] | – | – | ≤ 0.5 | 1 (≈ 2.06 µM)

Compound | MIC Sa (S. aureus ATCC 13709) [µg/mL] | MIC Ec (E. coli ATCC 25922) [µg/mL] | MIC (S. aureus ATCC 13709) [µg/mL] | MIC (E. coli ATCC 25922) [µg/mL]
CNc1cccc2c1[nH]c1nc(Sc3cncc(S(N)(=O)=O)c3)nc(N3CC4C(N)C4C3)c12 (centres unmarked) [1.41] | – | – | 4 (≈ 8.29 µM) | 8 (≈ 16.6 µM)
CNc1cccc2c1[nH]c1nc(Sc3cncc(S(=O)(=O)NCCO)c3)nc(N3CC4C(N)C4C3)c12 (centres unmarked) [1.42] | – | – | 8 (≈ 15.2 µM) | 32 (≈ 60.8 µM)
CNc1cccc2c1[nH]c1nc(Sc3cncnc3)nc(N3CC4C(N)C4C3)c12 (centres unmarked) [1.43] | – | – | 2 (≈ 4.94 µM) | 8 (≈ 19.8 µM)
CNc1cccc2c1[nH]c1nc(Sc3cncnc3)nc(N3CC(N)C4(CC4)C3)c12 (centres unmarked) [1.44] | – | – | 1 (≈ 2.39 µM) | 2 (≈ 4.78 µM)
CNc1cccc2c1[nH]c1nc(Sc3cnc4cccnc4c3)nc(N3CCCCC(N)C3)c12 (centres unmarked) [1.45] | – | – | 1 (≈ 2.12 µM) | 4 (≈ 8.5 µM)
CNc1cccc2c1[nH]c1nc(Sc3cnc4cccnc4c3)nc(N3CCNCC3)c12 [1.46] | – | – | 2 (≈ 4.52 µM) | 4 (≈ 9.04 µM)
CNc1cccc2c1[nH]c1nc(Sc3cnc4cccnc4c3)nc(N3CC4CNC(C4)C3)c12 (centres unmarked) [1.47] | – | – | ≤ 0.5 | 2 (≈ 4.27 µM)
CNc1cccc2c1[nH]c1nc(Sc3cnc4cccnc4c3)nc(N3CCC(CN)C3)c12 (centres unmarked) [1.48] | – | – | ≤ 0.5 | 2 (≈ 4.38 µM)
CNc1cccc2c1[nH]c1nc(Sc3cnc4ccc[n+]([O-])c4c3)nc(N3CC4C(N)C4C3)c12 (centres unmarked) [1.49] | ≤0.5 | – | – | –
CNc1cc(F)cc2c1[nH]c1nc(Sc3cnc4ccc[n+]([O-])c4c3)nc(N3CC4C(N)C4C3)c12 (centres unmarked) [1.50] | – | – | ≤ 0.5 | ≤ 0.5
CNc1cc(F)cc2c1[nH]c1nc(Sc3cnc4cccnc4c3)nc(N3CC4C(N)C4C3)c12 (centres unmarked) [1.51] | – | – | ≤ 0.5 | ≤ 0.5
CNc1cccc2c1[nH]c1nc(Sc3cnc4ccc[n+]([O-])c4c3)nc(N3CC4C(C3)C4NC(=O)[C@H](C)N)c12 (some centres unmarked) [1.52] | – | – | 1 (≈ 1.85 µM) | 16 (≈ 29.5 µM)
CNc1cccc2c1[nH]c1nc(Sc3cnc4cccnc4c3)nc(N3CCC(CO)C3)c12 (centres unmarked) [1.53] | – | – | ≤ 0.5 | 8 (≈ 17.5 µM)
CNc1cccc2c1[nH]c1nc(Sc3cnc4cccnc4c3)nc(N3CCN(c4cnccn4)CC3)c12 [1.54] | – | – | ≤ 0.5 | > 64
CNc1cccc2c1[nH]c1nc(Sc3cnc4cccnc4c3)nc(N3CC4CNCC4C3)c12 (centres unmarked) [1.55] | – | – | 1 (≈ 2.13 µM) | 8 (≈ 17.1 µM)
CNc1cccc2c1[nH]c1nc(Sc3cnc4cccnc4c3)nc(N3CCC4(CCNCC4)C3)c12 [1.56] | – | – | 4 (≈ 8.05 µM) | 32 (≈ 64.4 µM)
CNc1cccc2c1[nH]c1nc(Sc3cnc4ccc[n+]([O-])c4c3)nc(N3CC4CC3CN4)c12 (centres unmarked) [1.57] | – | – | > 32 | > 32
CNc1ccc(C)c2c1[nH]c1nc(Sc3cnc4cccnc4c3)nc(N3CC4C(N)C4C3)c12 (centres unmarked) [1.58] | – | – | ≤ 0.5 | 8 (≈ 17.1 µM)
CNc1cccc2c1[nH]c1nc(Sc3cnc4cccnc4c3)nc(N3CCC(C)(N)C3)c12 (centres unmarked) [1.59] | – | – | 1 (≈ 2.19 µM) | 4 (≈ 8.76 µM)
CNc1cccc2c1[nH]c1nc(Sc3cnc4ccc[n+]([O-])c4c3)nc(N3CC4C(N)C4C3)c12 (centres unmarked) [1.71] | ≤0.5 | – | – | –
